Experimental findings from US4843087A (priority 1986, dated 1989) are described below.

One assay has as its system Polio 2. The assay can be described thus: microbe, parasite or virus in culture. It counts as cell-based, poliovirus. The conditions noted are these: Enterovirus C, HeLa, read-out: Polio 2 MIC.
Assay [1] deals with human rhinovirus (HRV) serotypes. The assay can be described thus: microbe, parasite or virus in culture. It counts as cell-based. The conditions noted are these: for MIC50: read-out: Rhinovirus MIC50; for IC (MIC80 of serotype panel): read-out: Rhinovirus MIC80.

≈ marks a conversion by molar mass, not a printed value.

On to `Cc1cc(CCCCCOc2c(F)c(F)c(C3=NCCO3)c(F)c2F)on1` [161(c), 5-{5-[4-(4,5-Dihydro-2-oxazolyl)-2,3,5,6-tetrafluorophenoxy]pentyl}-3-methylisoxazole], for which, in the assay with Polio 2, the MIC was found to be 0.05 µg/mL (≈ 0.129 µM). Besides, in assay [1], the MIC50 came to 0.25 µg/mL (≈ 0.647 µM) and the IC (MIC80 of serotype panel) amounted to 3.5 µg/mL.

Take `Cc1cc(CCCCCOc2c(Cl)cc(C(=O)NCCCl)cc2Cl)on1` [162(c), 3,5-Dichloro-N-(2-chloroethyl)-4-{[5-(3-methyl-5-isoxazolyl)pentyl]oxy}benzamide]: the MIC in the assay with Polio 2 was 0.48 µg/mL (≈ 1.14 µM). Further, in assay [1], the MIC50 was determined as 0.16 µg/mL (≈ 0.381 µM) and the IC (MIC80 of serotype panel) came to 0.28 µg/mL.

Take `Cc1cc(CCCCCCc2c(Cl)cc(C3=NCCO3)cc2Cl)on1` [163(b), 5-{6-[2,6-Dichloro-4-(4,5-dihydro-2-oxazolyl)phenyl]hexyl}-3-methylisoxazole]: the MIC in the assay on Polio 2 was 1.4 µg/mL (≈ 3.67 µM). In assay [1], the MIC50 worked out at 0.49 µg/mL (≈ 1.29 µM) and the IC (MIC80 of serotype panel) amounted to 0.73 µg/mL.

On to `Cc1cc(CCCCCCOc2ccc(C3=NCCO3)cc2Cl)on1` [Example 16, 5-{-[26-Chloro-4-(4,5-dihydro-2-oxazolyl)phenoxy]hexyl}-3-methylisoxazole], for which, in the assay with Polio 2, the MIC came to 0.13 µg/mL (≈ 0.358 µM). Moreover, in assay [1], the MIC50 worked out at 0.08 µg/mL (≈ 0.22 µM) and the IC (MIC80 of serotype panel) came out at 0.43 µg/mL.

On to `Cc1cc(CCCCCOc2ccc(C3=NCCO3)cc2F)on1` [Example 20, 5-{5-[4-(4,5-Dihydro-2-oxazolyl)-2-fluorophenoxy]pentyl}-3-methylisoxazole], for which the MIC in the assay on Polio 2 turned out to be 0.1 µg/mL (≈ 0.301 µM). Moreover, in assay [1], the MIC50 was 0.38 µg/mL (≈ 1.14 µM) and the IC (MIC80 of serotype panel) is 26.9 µg/mL.

Take `Cc1cc(CCCCOc2ccc(C3=NCCO3)cc2Cl)on1` [Example 24, 5-{4-[2-Chloro-4-(4,5-dihydro-2-oxazolyl)phenoxy]butyl}-3-methylisoxazole]: the MIC in the assay with Polio 2 is 1.7 µg/mL (≈ 5.08 µM). In addition, in assay [1], the MIC50 was 0.087 µg/mL (≈ 0.26 µM) and the IC (MIC80 of serotype panel) was 1.2 µg/mL.

For the molecule `Cc1cc(CCCCCOc2ccc(C3=NC(C)CO3)cc2Cl)on1` (stereo not drawn) [Example 32, 5-{5-[2-Chloro-4-(4,5-dihydro-4-methyl-2-oxazolyl)phenoxy]pentyl}-3-methylisoxazole], in the assay with Polio 2, the MIC worked out at 1.3 µg/mL (≈ 3.58 µM). Also, in assay [1], the MIC50 worked out at 0.09 µg/mL (≈ 0.248 µM) and the IC (MIC80 of serotype panel) turned out to be 0.27 µg/mL.

On to `Cc1cc(CCCCCCCOc2ccc(C3=NC(CO)CO3)cc2)on1` (stereo not drawn) [Example 33, 5-{7-[4-(4,5-Dihydro-4-hydroxymethyl-2-oxazolyl)phenoxy]heptyl}-3-methylisoxazole], for which the MIC in the assay with Polio 2 was found to be 3 µg/mL (≈ 8.05 µM). In assay [1], the MIC50 worked out at 51 µg/mL (≈ 137 µM) and the IC (MIC80 of serotype panel) came out at 99 µg/mL.

For the molecule `Cc1noc(CCCCCCCOc2ccc(C3=NCCO3)cc2)c1CCl` [Example 35, 4-Chloromethyl-5-{7-[4-(4,5-dihydro-2-oxazolyl)phenoxy]heptyl}-3-methylisoxazole], in the assay on Polio 2, the MIC stood at 0.05 µg/mL (≈ 0.128 µM). For the same molecule, in assay [1], the MIC50 stood at 1.39 µg/mL (≈ 3.54 µM) and the IC (MIC80 of serotype panel) was found to be 1.8 µg/mL.

As for `COc1cc(C2=NCCO2)ccc1OCCCCCc1cc(C)no1` [Example 42, 5-{5-[4-(4,5-Dihydro-2oxazolyl)-2-methoxyphenoxy]pentyl}-3-methylisoxazole], the MIC in the assay on Polio 2 is 0.12 µg/mL (≈ 0.348 µM). In assay [1], the MIC50 is 0.35 µg/mL (≈ 1.02 µM) and the IC (MIC80 of serotype panel) amounted to 0.64 µg/mL.

In the case of `Cc1noc(CCCCCCCOc2ccc(C3=NCCO3)cc2Cl)c1CO` [Example 43], the MIC in the assay on Polio 2 was 0.3 µg/mL (≈ 0.737 µM). Moreover, in assay [1], the MIC50 is 0.31 µg/mL (≈ 0.762 µM) and the IC (MIC80 of serotype panel) is 1 µg/mL.

Consider `Cc1cc(CCCCCOc2ccc(C3=NCCO3)cc2Br)on1` [Example 44, 5-{5-[2-Bromo-4-(4,5-dihydro-2-oxazolyl)phenoxy]pentyl}-3-methylisoxazole], for which the MIC with Polio 2 turned out to be 0.3 µg/mL (≈ 0.763 µM). In addition, in assay [1], the MIC50 was determined as 0.08 µg/mL (≈ 0.203 µM) and the IC (MIC80 of serotype panel) is 0.54 µg/mL.

For `Cc1cc(CCCCCCCOc2ccc(C3=NCCO3)cc2Br)on1` [Example 45, 5-{7-[2-Bromo-4(4,5-dihydro-2-oxazolyl)phenoxy]heptyl}-3-methylisoxazole], in the assay on Polio 2, the MIC came to 0.5 µg/mL (≈ 1.19 µM). In assay [1], the MIC50 stood at 0.16 µg/mL (≈ 0.38 µM) and the IC (MIC80 of serotype panel) amounted to 0.7 µg/mL.
